Earlier results in patent US20240041828A1, “Combination Therapeutics Comprising Nrf2 Agonists and Antivirals for Treating Viral Infections” (The Regents of the University of California, priority 2022, published 2024).
Counter-ions that a name gives are not always drawn. Like-named read-outs stand apart in the source and are kept apart here.

Test system: human mammalian cells
Conditions: cited from earlier work

| SMILES | concentration shown to be physiologically relevant, efficacious and non-cytotoxic (human mammalian cells) | concentration shown to be physiologically relevant, efficacious and non-cytotoxic |
| --- | --- | --- |
| COC1=C(OC)C(=O)C(CCCCCCCCCC[P+](c2ccccc2)(c2ccccc2)c2ccccc2)=C(C)C1=O.CS(=O)(=O)[O-] [Mito-MES, 10-(4,5-dimethoxy-2-methyl-3,6-dioxo-1,4-cyclohexadienyl) decyl triphenylphosphonium methanesulfonate] | 10-1000 nM |  |
| COC(=O)/C=C/C(=O)OC [DMF, Dimethyl fumarate] |  | 0.1-100 μM |
